From the supplement of paper PMC10290057
Where “and” joins values, the source holds several entries; their conditions need not be identical. Identical values can stand only once. Counter-ions that a name gives are not always drawn.

What was measured:
HCT116 [1] = assay: AC50 cell viability (CellTiter-Glo); higher = less potent; conditions: 48 h
HCT116 [2] = assay: efficacy (fitted maximal change in viability relative to DMSO control); higher = less cytotoxic (negative = loss of viability); conditions: 48 h
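Throughout, for AC50 cell viability (CellTiter-Glo): HCT116 colorectal carcinoma cells screened at five concentrations per compound, luminescent viability scaled between DMSO wells and empty wells on each plate, curves fitted per compound.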
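Throughout, for efficacy (fitted maximal change in viability relative to DMSO control): Luminescence-based viability readout, five doses per compound, normalized against on-plate DMSO and empty-well controls, followed by dose-response curve fitting for every drug.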

SMILES	AC50 cell viability (HCT116 [1])	efficacy (HCT116 [2])
CC(C)C[C@H](NC(=O)[C@H](Cc1ccccc1)NC(=O)c1cnccn1)B(O)O [Bortezomib]	0.0132 µM	-94.1%
Cc1cc(Nc2cc(CN3CCOCC3)c3nc(C)c(Cc4ccc(Cl)cc4F)n3n2)[nH]n1 [Gandotinib]	5.9 µM	-110%
CN1CCC(CC1)=C2C3=C(C=CC=C3)\C=C/C4=C2C=CC=C4 [Cyproheptadine hydrochloride]	23.5 µM	-81.9%
C/C1=C/C(=C(/CNC(=O)C2=CC(=CC3=C2C=N[N]3C4CCCC4)C5=CC=C(CN6CCOCC6)C=C5)C(=O)N1)C	20.9 µM	-108%
Cc1nc([C@](C)(O)CO)sc1-c1cnc(N)c(O[C@H](C)c2cc(F)ccc2-n2nccn2)c1	3.72 µM	-57.7%
O=C(CCNC(=O)c1ccc(OC(F)(F)F)cc1)N[C@@H]1CCCc2ccccc21 [ML-390]	0.742 µM	-57.7%
CC(=O)NC(C)c1ccc(Oc2ccc(OC(C)C)cc2)cc1 (stereo not drawn) [ACC1 BMS]	17.1 µM	-47.8%
c1cncc(CN2CCC(n3ncc4c(N5CCOCC5)nc(-c5ccc6[nH]ccc6c5)nc43)CC2)c1 [WAY-600]	5.9 µM	-78.7%
COC1=CC=C(C(=C1)OC(C)C)C/2=N/[C@@H]([C@@H](N2C(=O)N3CCNC(=O)C3)C4=CC=C(Cl)C=C4)C5=CC=C(Cl)C=C5 [Nutlin-3]	23.5 µM	-98.3%
CCOC(=O)[C@@]1(CCCCCCOc2ccc(Cl)cc2)CO1 [Etomoxir]	18.6 µM	-42.1%
CC(C)n1cnc2c(NCCCCCCNC(=O)OC(C)(C)C)nc(NCCO)nc21 [CK-59]	26.3 µM	-79.7%
Cn1c(Nc2ccc(C(F)(F)F)cc2)nc2cc(Oc3ccnc(-c4nc(C(F)(F)F)c[nH]4)c3)ccc21 [CHIR-265]	5.25 µM	-108%
Cc1c[nH]c2ncnc(N3CCC(CN)(C(=O)Nc4cccc(OC(=O)N(C)C)c4)CC3)c12 [LX-7101]	14.8 µM and 11.8 µM	-68.9% and -70.5%
CNC1CCC(N(Cc2cccc(-c3ccncc3)c2)C(=O)c2sc3ccccc3c2Cl)CC1 (stereo not drawn) [SAG]	16.6 µM	-98.5%
COc1cc(C)c(Sc2cnc(NC(=O)c3ccc(CNC(C)C(C)(C)C)cc3)s2)cc1C(=O)N1CCN(C(C)=O)CC1 (stereo not drawn)	11.8 µM	-110%
CC1(C)CCC2(CC1)N[C@@H](C(=O)N[C@@H]1CC[C@@H](C(N)=O)OC1)[C@H](c1ccnc(Cl)c1F)[C@]21C(=O)Nc2cc(Cl)ccc21 [Milademetan]	4.02 µM	-129%
C/C(=N\NC(=S)N1CCC1)c1ccccn1	0.0295 µM	-85.2%
[O-][n+]1cccc(-c2nc3c(Cl)cccc3cc2[C@@H](Nc2ncnc3cccnc23)C(F)(F)F)c1 [Seletalisib]	18.6 µM	-49.3%
CC(C)COCC(CN(Cc1ccccc1)c1ccccc1)N1CCCC1 (stereo not drawn) [Bepridil]	16.6 µM	-104%
Nc1ccccc1NC(=O)c1ccc(CNC(=O)OCc2cccnc2)cc1 [Entinostat]	2.95 µM	-83.4%

SMILES	AC50 cell viability (HCT116 [1])	efficacy (HCT116 [2])
COc1cccc2c1C(=O)c1c(O)c3c(c(O)c1C2=O)C[C@@](O)(C(=O)CO)C[C@@H]3O[C@H]1C[C@H](N)[C@H](O[C@H]2CCCCO2)[C@H](C)O1 [Pirarubicin]	0.934 µM and 0.468 µM	-90.5% and -67.3%
Nc1nc(Nc2ccc([S+](N)(=O)[O-])cc2)nn1C(=O)c1c(F)cccc1F	1.66 µM	-65.7%
CCN1CCC(n2cc(CNc3cc(Cl)c4ncc(C#N)c(Nc5ccc(F)c(Cl)c5)c4c3)nn2)CC1 [Wyeth Cot Inhibitor 2]	20.9 µM	-98.5%
CC(C)N(CCC(=O)c1ccc2ccccc2c1)Cc1ccccc1	20.9 µM	-77.8%
O=[N+]([O-])c1cnc(Sc2nnc(O)n2-c2ccc3c(c2)OCCO3)s1 [BI-78D3]	11.8 µM	-94.7%
CC(O)c1cc(C(=O)N[C@@H](C)Cn2ccc(-c3ccc(C#N)c(Cl)c3)n2)n[nH]1 (stereo partly drawn) [Darolutamide (ODM-201)]	16.6 µM	-38.4%
Cc1ccc(-c2nn(C(C)(C)CNC(=O)c3ccncc3)c3ncnc(N)c23)cc1 [WEHI-345]	6.61 µM	-53%
CNC(=O)c1c(F)cccc1Nc1nc(Nc2cc3c(cc2OC)CCN3C(=O)CN(C)C)nc2[nH]ccc12	5.25 µM	-131%
COc1cc2c(Oc3ccc4[nH]c(C)cc4c3F)ccnc2cc1OCC1(N)CC1 [Anlotinib]	16.6 µM	-112%
CCCCOC(=O)N[S+](=O)([O-])c1sc(CC(C)C)cc1-c1ccc(Cn2ccnc2)cc1 [M-024]	18.6 µM	-84.4%
Nc1nc(N)c2nc(-c3cccc(Cl)c3)c(N)nc2n1 [Epiblastin A]	1.66 µM	-85%
COc1cccc([C@@H](C)NCCCc2ccccc2Cl)c1 [NPS-R568]	23.5 µM	-99.8%
O=C(NOCC(O)CO)c1cc(Br)c(F)c(F)c1Nc1ccc(I)cc1F (stereo not drawn)	0.934 µM	-69.5%
CC(C)c1noc(N2CCC(COc3ccc(-c4ccc([S+](C)(=O)[O-])cc4)nc3)CC2)n1	3.72 µM	-32.3%
c1ccc2c(Oc3nc(Nc4ccc(N5CCOCC5)cc4)c4ncn(C5CCCCC5)c4n3)cccc2c1 [Purmorphamine]	11.8 µM	-34.8%
COC1=CC=CC(=C1/C2=N/CC3=C(N=C(NC4=CC(=C(C=C4)C(O)=O)OC)N=C3)C5=CC=C(Cl)C=C25)F [Alisertib]	0.417 µM	-41.5%
Nc1nc(OCc2cc(Br)cs2)c2[nH]cnc2n1 [Lomeguatrib]	18.6 µM	-56%
CCCCCN(CCC12CC3CC(CC(C3)C1)C2)C(=O)NCCCc1ccncc1 [DE-096]	16.6 µM	-90.2%
CC[S+](=O)([O-])N1CC(CC#N)(n2cc(-c3ncnc4[nH]ccc34)cn2)C1 [Baricitinib]	29.5 µM	-91.6%
COC(C)(C)CCn1nc(Nc2c(C)cccc2C)c2cnc(Nc3ccc(OCCN4CCCC4)c(F)c3)nc21 [PRP003-032]	14.8 µM	-122%

SMILES	AC50 cell viability (HCT116 [1])	efficacy (HCT116 [2])
Nc1nc(Cl)nc2c1ncn2[C@H]1C[C@H](O)[C@@H](CO)O1 [Cladribine]	0.295 µM	-55.8%
O=C(/C=C/c1ccc(CN(CCO)CCc2c[nH]c3ccccc23)cc1)NO [Dacinostat]	0.0833 µM	-89.1%
O=C(CCCCCCNC(=O)c1cnc(N(c2ccccc2)c2ccccc2)nc1)NO [ACY-1215]	7.42 µM	-93.5%
S=C(NCc1ccc2c(c1)OCO2)N1CCN(c2ncnc3c2oc2ccccc23)CC1 [Amuvatinib]	1.86 µM	-38.8%
CC1(C)CC[C@@]2(CC[C@]3(C)[C@@H]([C@@H]2C1)C(=O)\C=C\4[C@@]3(C)CC[C@H]5C(C)(C)C(=O)\C(=C/[C@]45C)C#N)NC(=O)C(C)(F)F [Omaveloxolone]	5.9 µM	-91.5%
CC(C)c1cc(C(C)C)c(CC(=O)N[S+](=O)([O-])Oc2c(C(C)C)cccc2C(C)C)c(C(C)C)c1 [Avasimibe]	14.8 µM	-82.3%
CC(=O)Nc1ccc(C(=O)Nc2ccccc2N)cc1 [Tacedinaline]	5.9 µM	-69.7%
O=C1CSC(=O)N1C(CCc1ccncc1)COc1ccc(-c2cccc([N+](=O)[O-])c2)cc1 (stereo not drawn)	2.63 µM	-32.9%
CC[C@H]1CN2CCc3cc(OC)c(OC)cc3[C@@H]2C[C@@H]1C[C@H]1NCCc2cc(OC)c(OC)cc21 [Emetine]	0.0833 µM	-73.6%
NC/1=N/C(=O)N(/C=C1)[C@@H]2O[C@H](CO)[C@@H](O)C2(F)F [Gemcitabine]	0.0263 µM	-71.9%
C[N]1C=C(C=N1)C2=C3\C=N/NC(=O)C4=C3C(=CC(=C4)NC(=O)[C@H](N)C5CCCCC5)[NH]2	16.6 µM	-67.8%
CN(C)C1=C(Br)C=C(C=C1)C\2NC3=C(\C4=C2C(=O)CC(C)(C)C4)C5=CC=CC=C5C=C3 (stereo not drawn) [GLS-968]	9.34 µM	-31.2%
COCCOc1ccc2c(c1)ncn2-c1ccc2cccc(N3CCC(N)CC3)c2n1	2.95 µM	-85.5%
COc1nnc2ccc(N3CCC(c4ccc(OCCN5CCN(C)C(=O)[C@H]5C)cc4)CC3)nn12 [AZD-5153 6-Hydroxy-2-naphthoic acid]	0.0833 µM	-68.6%
CC(C)CNc1ccnc(NCc2csc(-c3ccccc3)n2)n1 [KHS-101]	11.8 µM	-129%
CCCCC(=O)OCC(=O)[C@]1(O)Cc2c(O)c3c(c(O)c2[C@@H](O[C@H]2C[C@H](NC(=O)C(F)(F)F)[C@H](O)[C@H](C)O2)C1)C(=O)c1c(OC)cccc1C3=O [Valrubicin]	1.86 µM	-88.9%
O=C(Nc1ncc(SCCN2CCCC2)s1)[C@]1(c2ccc([S+](=O)([O-])C3CC3)cc2)C[C@H]1C1CCCCC1	18.6 µM	-95.8%
Cc1c(CN2CCN(C(=O)[C@H](C)O)CC2)sc2c(N3CCOCC3)nc(-c3cnc(N)nc3)nc12 [GDC-0980]	0.525 µM	-57.1%
CCN(CC)CCCC(C)Nc1nc(C)cc(Nc2ccc3nc(C)cc(N)c3c2)n1 (stereo not drawn)	20.9 µM	-54.4%
